From patent US20080287396A1, “Phosphonated Fluoroquinolones, Antibacterial Analogs Thereof, and Methods for the Prevention and Treatment of Bone and Joint Infections” (TARGANTA THERAPEUTICA INC., priority 2005, published 2008)
Values after ≈ are worked out from the molar mass of the structure shown.

What was measured:
[1] = Levels of prodrug 52 in rat plasma in vivo
Procedure: Female CD rats (age, 57 to 70 days; n=3/group; Charles River, St-Constant, Canada) were administered a single bolus intravenous (tail vein) dose of compound 52 (dissolved in 0.85% NaCl) at 15.8 mg/kg of body weight, corresponding to 10 mg/kg of moxifloxacin 3. Animals were sacrificed by CO2 inhalation at the specified time points after i.v. dosing to evaluate the levels of 52 in plasma. Blood samples were collected by cardiac puncture and transferred in BD Vacutainer tubes (green cap) for plasma isolation. The plasma components were obtained by centrifugation of these samples and they were stored at −80° C. until analysis.
For the dosage of prodrug in the plasma, the standards and QCs were prepared (in duplicate) as follows: to 100 μl of blank plasma was added a spiking solution (5 μl) of the prodrug (52 in water). The range of the standards (8 levels) was from 0.06 to 25 μM and the QC levels were 0.18, 1.87 and 18.75 μM. Four samples of blank plasma without prodrug were also prepared. […]
Moxifloxacin 3 resulting from the cleavage of the prodrug was analyzed with the same method on an Agilent 1100™ series LC/MSD Trap, The extracted sample was injected into a Zorbax™ SB-Aq column (2×30 mm, 3.5μ), using 0.1% formic acid in water(aq) and 0.1% formic acid in acetonitrile(org) as the mobile phase, at a flow rate of 0.3 ml/min. […]

[2] = Regenerated moxifloxacin in infected and uninfected rat tibiae; format: in vivo; details: 52 IV 15.8 or 31.6 mg/kg one day after surgery; tibiae one and six days after treatment
Procedure: Rats were infected as in Example 7, and treated IV with either 15.8 or 31.6 mg/kg of body weight of prodrug 52 one day after surgery. One day and six days following the treatment, the tibiae were collected as described previously. The levels of regenerated moxifloxacin 3 were determined as follows.
The experimentally obtained whole tibia was ground to a powder which was suspended in 5% formic acid in methanol (500 mg/1.6 ml) to extract the released moxifloxacin 3. The mixture was vortexed for 10 minutes and centrifuged for 20 minutes at 1250 g.
Standards (from 5 to 1000 ng), QCs (25 and 250 ng) and blanks were prepared (in duplicate) as follows: to blank tibia powder (50 mg, not dried) was added the 5% formic acid solution in methanol (160 μl) and the spiking solution of moxifloxacin 3 in water (10 μl). The mixtures were vortexed for 10 minutes and centrifuged for 10 minutes at 2500 g. The supernatant was transferred into another vial, spiked with the internal standard, vortexed and evaporated to dryness. In each case, the resulting dried residues (samples, standards, QCs and blanks) were reconstituted in 200 μl of water, vortexed for 15 min and centrifuged for 15 min at 10 000 g. The solution (20 μl) was injected into the LC/MS. The LC/MS method is as described in Example 6.

Hela cells = experiment: Cytotoxicity assay (MTS reduction); format: cell-based; details: concentrations up to 100 μM, 18 h, MTS reagent; data not shown
Procedure: Selected compounds were also tested for their ability to inhibit growth of mammalian cells so as to ascertain levels of cytotoxicity to the mammalian host, via an assay measuring the biological reduction of the inner salt of (3-(4,5-dimethylthiazol-2-yl)-5-(3-carboxymethoxyphenyl)-2-(4-sulfophenyl)-2H-tetrazolium (MTS reagent). Assays were performed in 96-well microtiter plates. Briefly, compounds at 100, 50, 25, and 12.5 μM concentrations were incubated with 2×10^4 Hela cells per well in Dulbecco's Modified Eagle Medium (Invitrogen Corporation) containing 1% Bovine Growth Serum (HyClone) for 18 h at 37° C. under 5% CO2.

[3] = test system: S. aureus strains ATCC13709 and RN4220; experiment: microbe, parasite or virus in culture; format: cell-based; details: Staphylococcus aureus, ATCC13709; CAMHB, 37° C., 18 h; data not shown; read-out: minimum inhibitory concentration (MIC)
Procedure: Susceptibility of S. aureus strains ATCC13709 and RN4220 to the commercial antibiotics and synthesized compounds was determined by following the guidelines set by the Clinical and Laboratory Standards Institute (formerly the National Committee for Clinical Laboratory Standards) (M26-A). Compounds were diluted two-fold serially in DMSO and transferred to cation-adjusted Mueller Hinton broth (CAMHB; Becton Dickinson). 50 μL of compounds diluted in CAMHB was mixed with 100 μL of bacteria diluted in CAMHB in 96-well microtiter plates. The final number of micro-organisms in the assay was 5×10^5 c.f.u. per mL and the final concentration of DMSO in the assay was 1.25%. Assays were set up in duplicate and incubated at 37° C. for 18 h. The concentration of compound that inhibited visible growth was reported as the minimum inhibitory concentration (MIC).

Structure (SMILES)	clearance from the blood circulation of rats, in words ([1]; FIG. 5)	half-life of clearance from the circulation ([1]; rat plasma, IV bolus 15.8 mg/kg, 5 min to 24 h)	level of regenerated moxifloxacin 3, uninfected versus infected tibiae [2]	cytotoxicity (Hela cells)	MIC [3] [µg/mL]
COc1c(N2C[C@@H]3CCCN[C@@H]3C2)c(F)cc2c(=O)c(C(=O)OCC(=O)NC(P(=O)(O)O)P(=O)(O)O)cn(C3CC3)c12 [Compound 52, (1,1-Bisphosphonomethylcarbamoyl)methyl 1-cyclopropyl-6-fluoro-1,4-dihydro-7-((4aS,7aS)-octahydropyrrolo[3,4-b]pyridin-6-yl)-8-methoxy-4-oxoquinoline-3-carboxylate]	rapid clearance	less than one hour	not significantly different		
COc1c(N2CCNC(C)C2)c(F)cc2c(=O)c(C(=O)OCC(=O)NC(P(=O)(O)O)P(=O)(O)O)cn(C3CC3)c12 (centres unmarked) [Compound 54, (1,1-Bisphosphonomethylcarbamoyl)methyl 7-(3-methylpiperazin-1-yl)-1-cyclopropyl-6-fluoro-1,4-dihydro-8-methoxy-4-oxoquinoline-3-carboxylate]				no signs of any cytotoxicity	4 to 16 (≈ 6.6 to 26.4 µM)
